{"source": "patent US20050014849A1", "about": "“Antifungal phenylethylene” (priority 2001, published 2005)", "key": {"[1]": {"test_system": "Flucytosine-resistant C. albicans ATCC 32354", "assay": "Broth macrodilution MIC/MFC", "format": "cell-based, Candida albicans", "description": "(§1) TMPN was screened against yeasts by the broth macrodilution assay according to the NCCLS [7]. Yeasts were suspended and diluted as recommended to yield final inocula ranging from 0.5-2.5×10^3 cfu/ml. Tests were performed in sterile 12 by 75 mm plastic tubes containing two-fold dilutions of TMPN in 0.165 M morpholinepropanesulfonic acid buffered RPMI 1640 medium (pH 7.0). One tube was again left drug free (but contained an equivalent volume of DMSO) for a turbidity control. Tubes were incubated without agitation at the appropriate temperature (see Fungal Strains section above). MICs were determined after 72 h for Cryptococcus and after 48 h for other yeast genera. The MIC was defined as the lowest concentration of TMPN that inhibited all visible growth of the test organism (optically clear).\n(§2) Minimum fungicidal concentrations (MFCs) were determined by subculturing 0.1 ml from each tube with no visible growth in the MIC broth macrodilution series onto the appropriate drug-free plates (see Fungal Strains section above)."}, "[2]": {"test_system": "T. mucoides ATCC 90046", "assay": "Broth macrodilution MIC/MFC", "format": "cell-based, Trichosporon mucoides", "description": "as §1, §2"}, "[3]": {"test_system": "all bacteria", "assay": "NCCLS broth macrodilution assay, antibacterial", "format": "cell-based", "conditions": "Neisseria gonorrhoeae; all bacteria (single exception N. gonorrhoeae)", "description": "(§3) The antibacterial activity of TMPN was also assessed by the NCCLS broth macrodilution assay. Isolated colonies from overnight cultures were suspended and diluted as recommended to yield final inocula of approximately 5×10^5 cfu/ml. Tests were performed in sterile plastic tubes (12 by 75 mm) containing twofold dilutions of TMPN in gonococcal typing broth (Neisseria), Mueller Hinton II (MHII) (cation adjusted) broth containing 3% lysed horse blood (Streptococcus) or MHII broth (all other bacteria). One tube was left drug-free (but contained an equivalent volume of DMSO) for a turbidity control. Tubes were incubated without agitation at 37° C. with 5% CO2 (Streptococcus, Neisseria), or at 35° C. (remaining bacteria). MICs were determined after 24 h for all bacteria except Micrococcus, which was read at 48 h. The MIC was defined as the lowest concentration of drug that inhibited all visible growth of the test organism (optically clear)."}, "[4]": {"test_system": "N. gonorrhoeae", "assay": "NCCLS broth macrodilution assay, antibacterial", "format": "cell-based", "conditions": "Neisseria gonorrhoeae", "description": "as §3"}, "[5]": {"test_system": "Paecilomyces lilacinus (1)", "assay": "Broth macrodilution MIC/MFC, filamentous fungi", "format": "cell-based", "description": "(§4) Susceptibility testing of filamentous fungi was also conducted. Broth macrodilution susceptibility testing of P. lilacinus, Rhizopus spp. and Aspergillus spp. was performed in accordance with a proposed standardized procedure with slight modification. To induce conidium and sporangiospore formation, fungi were grown on PDA slants at 35° C. for 6 days (P. lilacinus, Rhizopus spp., all Aspergillus species except A. nidulans) or 3 days (A. nidulans). Fungal slants were covered with sterile 0.85% NaCl (P. lilacinus, Rhizopus spp., all Aspergillus species except A. nidulans) or 0.05% Tween 80 (A. nidulans), and suspensions were made by gently probing the colonies with the tip of a sterile Pasteur pipette. The resulting mixture of hyphal fragments and conidia or sporangiospores was withdrawn and transferred to a sterile clear microcentrifuge tube, and heavy particles were allowed to settle for 10 min. The upper homogenous suspension was transferred to a sterile microcentrifuge tube, vortexed for 15 s, adjusted spectrophotometrically, and diluted in sterile 0.165 M MOPS-buffered RPMI medium, pH 7.0, to yield final inocula ranging from 0.5-2.5×10^3 cfu/ml. Susceptibility to TMPN was then determined by broth macrodilution as described above for yeast isolates. MICs were read after 48 h The MIC was defined as the lowest concentration of TMPN that inhibited all visible growth of the test organism (optically clear).\nas §2"}, "[6]": {"test_system": "Rhizopus oligosporus ATCC 22959", "assay": "Broth macrodilution MIC/MFC, filamentous fungi", "format": "cell-based", "description": "as §4, §2"}, "[7]": {"test_system": "C. neoformans (ATCC 90112)", "assay": "Frequency of occurrence of spontaneous mutants", "format": "cell-based, Cryptococcus neoformans", "conditions": "four times the broth macrodilution MIC", "description": "Determination of the frequency of occurrence of spontaneous mutants was performed as previously described. Overnight cultures of C neoformans (ATCC 90112), C. albicans (ATCC 90028) and Trichosporon inkin (ATCC 18020) were diluted to an OD530 nm=0.3. 0.1 ml of each preparation was spread onto SDA plates containing four or eight times the broth macrodilution MIC of TMPN. The starting inoculum for each organism was also diluted and plated onto drug-free SDA plates for determination of cfu/ml. After a 48 h incubation at the appropriate temperature (see Fungal Strains section above), the number of colonies on drug-supplemented SDA was counted. The frequency of occurrence of spontaneous mutants was calculated by dividing the number of colonies on drug-containing plates by the number of colonies in the inoculum. When no colonies were visualized on drug-containing plates, the calculation was (<) 1 colony divided by the number of colonies in the inoculum."}, "[8]": {"test_system": "A. niger (ASU culture collection)", "assay": "Broth macrodilution MIC/MFC, filamentous fungi", "format": "cell-based, Aspergillus niger", "description": "as §4, with “The upper homogenous suspension was transferred to a sterile microcentrifuge tube, vortexed for 15 s, adjusted spectrophotometrically, and diluted in sterile 0.165 M MOPS-buffered RPMI medium, pH 7.0, to yield final inocula ranging from 0.5-2.5×10^3 cfu/ml.” left out, “MICs were read after 48 h The MIC was defined as the lowest concentration of TMPN that inhibited all visible growth of the test organism (optically clear).” left out\nas §2"}, "[9]": {"test_system": "C. neoformans (24)", "assay": "Broth macrodilution MIC/MFC", "format": "cell-based, Cryptococcus neoformans", "description": "as §1, §2"}, "[10]": {"test_system": "C. neoformans ATCC 66031", "assay": "Broth macrodilution MIC/MFC", "format": "cell-based, Cryptococcus neoformans", "description": "as §1, §2"}, "[11]": {"test_system": "C. neoformans ATCC 14116", "assay": "Broth macrodilution MIC/MFC", "format": "cell-based, Cryptococcus neoformans", "description": "as §1, §2"}, "[12]": {"test_system": "C. neoformans ATCC 32045", "assay": "Broth macrodilution MIC/MFC", "format": "cell-based, Cryptococcus neoformans", "description": "as §1, §2"}, "[13]": {"test_system": "C. utilis ATCC 22023", "assay": "Broth macrodilution MIC/MFC", "format": "cell-based, Candida utilis", "description": "as §1, §2"}, "[14]": {"test_system": "C. utilis ATCC 9226", "assay": "Broth macrodilution MIC/MFC", "format": "cell-based, Candida utilis", "description": "as §1, §2"}, "[15]": {"test_system": "Amphotericin B-resistant C. lusitaniae ATCC 42720", "assay": "Broth macrodilution MIC/MFC", "format": "cell-based, Candida lusitaniae", "description": "as §1, §2"}, "[16]": {"test_system": "Epidermophyton floccosum ATCC 52066", "assay": "Broth macrodilution MIC/MFC", "format": "cell-based"}}}
{"smiles": "COc1cc(C=C[N+](=O)[O-])cc(OC)c1OC", "note": "[TMPN, 1-(3′,4′,5′-trimethoxyphenyl)-2-nitro-ethylene]", "values": [{"measurement": "MFC Range", "setting": "[1]", "value": 16, "unit": "mg/L"}, {"measurement": "MIC Range", "setting": "[1]", "value": 16, "unit": "mg/L"}, {"measurement": "MFC Range", "setting": "[2]", "value": 32, "unit": "mg/L"}, {"measurement": "MIC Range", "setting": "[2]", "value": 16, "unit": "mg/L"}, {"measurement": "MIC", "setting": "[3]", "value": "> 64", "unit": "mg/L"}, {"measurement": "MIC", "setting": "[4]", "value": 4, "unit": "mg/L"}, {"measurement": "MFC Range", "setting": "[5]", "value": 64, "unit": "mg/L"}, {"measurement": "MIC Range", "setting": "[5]", "value": 32, "unit": "mg/L"}, {"measurement": "MFC Range", "setting": "[6]", "value": ">64", "unit": "mg/L"}, {"measurement": "MIC Range", "setting": "[6]", "value": 8, "unit": "mg/L"}, {"measurement": "frequency of occurrence of single-step resistant mutants", "setting": "[7]", "value": "≤ 10^−6"}, {"measurement": "MFC Range", "setting": "[8]", "value": 64, "unit": "mg/L"}, {"measurement": "MIC Range", "setting": "[8]", "value": 16, "unit": "mg/L"}, {"measurement": "MFC 50% (MFC at which 50% of the strains are killed)", "setting": "[9]; C. neoformans (24)", "value": 8, "unit": "mg/L"}, {"measurement": "MFC 90% (MFC at which 90% of the strains are killed)", "setting": "[9]; C. neoformans (24)", "value": 16, "unit": "mg/L"}, {"measurement": "MFC Range", "setting": "[9]; C. neoformans (24)", "value": "4 to 32", "unit": "mg/L"}, {"measurement": "MIC Range", "setting": "[9]; C. neoformans (24)", "value": "2 to 16", "unit": "mg/L"}, {"measurement": "share of isolates with MFC/MIC ratio <2", "setting": "[9]; C. neoformans clinical isolates", "value": 96, "unit": "%"}, {"measurement": "share of isolates with MFC/MIC ratio ≦2", "setting": "[9]; Cryptococcus neoformans clinical isolates", "value": 96, "unit": "%"}, {"measurement": "MIC50", "setting": "[9]; Cryptococcus neoformans, C. neoformans (24), read-out: MIC 50% (MIC at which 50% of the strains are inhibited)", "value": 4, "unit": "mg/L"}, {"measurement": "MIC90", "setting": "[9]; Cryptococcus neoformans, C. neoformans (24), read-out: MIC 90% (MIC at which 90% of the strains are inhibited)", "value": 8, "unit": "mg/L"}, {"measurement": "MFC Range", "setting": "[10]", "value": 4, "unit": "mg/L"}, {"measurement": "MIC Range", "setting": "[10]", "value": 2, "unit": "mg/L"}, {"measurement": "MFC Range", "setting": "[11]", "value": 16, "unit": "mg/L"}, {"measurement": "MIC Range", "setting": "[11]", "value": 8, "unit": "mg/L"}, {"measurement": "MFC Range", "setting": "[12]", "value": 4, "unit": "mg/L"}, {"measurement": "MIC Range", "setting": "[12]", "value": 4, "unit": "mg/L"}, {"measurement": "MFC Range", "setting": "[13]", "value": 8, "unit": "mg/L"}, {"measurement": "MIC Range", "setting": "[13]", "value": 8, "unit": "mg/L"}, {"measurement": "MFC Range", "setting": "[14]", "value": 8, "unit": "mg/L"}, {"measurement": "MIC Range", "setting": "[14]", "value": 4, "unit": "mg/L"}, {"measurement": "MFC Range", "setting": "[15]", "value": 16, "unit": "mg/L"}, {"measurement": "MIC Range", "setting": "[15]", "value": 16, "unit": "mg/L"}, {"measurement": "MIC Range", "setting": "[16]", "value": 2, "unit": "mg/L"}]}
